Source: US7919101B2 (priority 2008, dated 2011)
Like-named read-outs stand apart in the source and are kept apart here. Residues, ends and D or L forms follow the SMILES beside them. No end group written: not given here.

Experiments:
[1] = tested on: HIV-1 Env-mediated cell-cell fusion; details: cited from earlier work
[2] = tested on: HIV-1-mediated cell-cell fusion (H9/HIV-1IIIB cells and MT-2 cells); assay: HIV-1-mediated cell-cell fusion, dye transfer assay; format: cell-based
Description: The inhibitory activities of the compounds on HIV-induced cell-cell fusion were determined using a dye transfer assay (Jiang S et al. Proc SPIE 3926:212-219, 2000). Briefly, H9/HIV-1IIIB cells were pre-labeled with a fluorescent dye, Calcein AM (Molecular Probes, Inc.), and incubated with a testing compound at a graded concentration at 37° C. for 30 min in a 96-well cell culture plate. Then the CD4^+ MT-2 cells were added to the H9/HIV-1IIIB cells at a ratio of 10:1, followed by incubation at 37° C. for 2 hrs. The fused and unfused calcein-labeled HIV-1-infected cells were counted under an inverted fluorescence microscope with an eyepiece micrometer disc.

[3] = cited from earlier work
HIV-1 = details: cited from earlier work
gp41 6-HB formation = gp41 6-HB formation (Human immunodeficiency virus type 1 group M subtype B, UniProt P04578); details: cited from earlier work
Sequence of gp41 6-HB formation (P04578 546-581): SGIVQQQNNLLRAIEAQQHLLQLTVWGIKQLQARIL

[4] = in combination T-20:Sifuvirtide (4:1)
[5] = in combination T-20:Sifuvirtide (4:1) vs alone

## NHR-peptide, disulfide-stabilized helical trimer; SEQ ID NO:48 SGIVQQQNNLLRAIEAQQHLLQLTVWGIKQCCGR (not fully specified (bridges); also: disulfide-stabilized helical trimer) [N34ccg]
[1]; read-out: EC50, HIV-induced cell-cell fusion
  EC50: 95 nM

## CC[C@H](C)[C@H](NC(=O)[C@H](CCC(=O)O)NC(=O)[C@H](CCCNC(=N)N)NC(=O)[C@H](CCC(=O)O)NC(=O)[C@H](Cc1c[nH]c2ccccc12)NC(=O)[C@@H](NC(=O)[C@H](CCC(=O)O)NC(=O)[C@H](Cc1c[nH]c2ccccc12)NC(=O)[C@@H](N)CO)[C@@H](C)O)C(=O)N[C@@H](CCC(=O)O)C(=O)N[C@@H](CC(N)=O)C(=O)N[C@@H](Cc1ccc(O)cc1)C(=O)N[C@H](C(=O)N[C@@H](CCCCN)C(=O)N[C@@H](CCC(N)=O)C(=O)N[C@H](C(=O)N[C@@H](Cc1ccc(O)cc1)C(=O)N[C@@H](CCCCN)C(=O)N[C@H](C(=O)N[C@@H](CC(C)C)C(=O)N[C@@H](CCC(=O)O)C(=O)N[C@@H](CCC(=O)O)C(=O)N[C@@H](CO)C(=O)N[C@@H](CCC(N)=O)C(=O)N[C@@H](CCC(=O)O)C(=O)N[C@@H](CCC(N)=O)C(=O)N[C@@H](CCC(N)=O)C(=O)N[C@@H](CC(=O)O)C(=O)N[C@@H](CCCNC(=N)N)C(=O)N[C@@H](CC(N)=O)C(=O)N[C@@H](CCC(=O)O)C(=O)N[C@@H](CCCCN)C(=O)N[C@@H](CC(=O)O)C(=O)N[C@@H](CC(C)C)C(=O)N[C@@H](CC(C)C)C(=O)N[C@@H](CCC(=O)O)C(=O)O)[C@@H](C)CC)[C@@H](C)CC)[C@@H](C)O [Sifuvirtide] (H-SWETWEREIENYTKQIYKILEESQEQQDRNEKDLLE-OH; N-terminus and C-terminus assumed)
[2]; [4]
  EC70 Concentration Mix: 0.589 nM
  EC95 Concentration Mix: 0.884 nM
[2]; [5]
  Potency increase at EC50: 35.424 fold
  Potency increase at EC70: 35.075 fold
  Potency increase at EC90: 34.771 fold
  Potency increase at EC95: 34.564 fold
[2]; in combination T-20:Sifuvirtide (4:1), read-out: EC50 Concentration Mix
  EC50: 0.462 nM
[2]; in combination T-20:Sifuvirtide (4:1), read-out: EC90 Concentration Mix
  EC90: 0.75 nM
[2]; peptide tested alone
  EC70 Concentration Alone: 20.659 nM
  EC95 Concentration Alone: 30.555 nM
[2]; peptide tested alone, read-out: EC50 Concentration Alone
  EC50: 16.4 nM
[2]; peptide tested alone, read-out: EC90 Concentration Alone
  EC90: 26.1 nM
[3]; multiple administration
  decay half-life: 26.0 ± 7.9 h
[3]; single administration
  decay half-life: 20.0 ± 8.6 h

## COc1ccc(S(=O)(=O)[O-])cc1N=Nc1c(S(=O)(=O)[O-])cc2cc(Nc3nc(Nc4ccccc4)nc(Nc4cc(C)c(N=Nc5cc(S(=O)(=O)[O-])cc6cc(S(=O)(=O)[O-])cc(O)c56)cc4OC)n3)ccc2c1O.[Na+].[Na+].[Na+].[Na+] [ADS-J1]
[1]
  EC50, HIV-1 mediated cell-cell fusion (in words): low μM range
HIV-1
  EC50, HIV infection / replication (in words): low μM range
gp41 6-HB formation
  EC50, gp41 6-HB formation (in words): low μM range

## short all D-amino acid peptide; SEQ ID NO:24 KGACELLGWEWAWLCAA [D10-p5-2K]
HIV-1
  EC50, HIV infection / replication (in words): low micromolar range

## short all D-amino acid peptide; SEQ ID NO:25 KGACDYPEWQWLCAA [PIE7]
HIV-1
  EC50, HIV infection / replication (in words): low micromolar range
